Results reported in ChEMBL document CHEMBL3046688, “Antitumor and Anti-Pneumocystis Carinii Activities of Novel Bisbenzamidines” (Med Chem Res, 2005).

What was measured:
SF-268 = test: Cytotoxicity against Homo sapiens (human) SF268 cells at 100 uM after 48 hr by SRB assay relative to control; format: cell-based; settings: sf-268, 48 h
DNA = test: Binding affinity to Bos taurus (calf) thymus DNA at 1:5 compound to DNA base pair ratio; format: nucleic-acid assay
MCF7 = test: Cytotoxicity against Homo sapiens (human) MCF7 cells at 100 uM after 48 hr by SRB assay relative to control; format: cell-based; settings: mcf7, 48 h
[1] = Growth inhibition of Homo sapiens (human) ovarian cancer cells after 48 hr by SRB assay; format: cell-based; settings: cancer cell lines
[2] = Selectivity index, ratio of GI50 for human tumor cells to IC50 for Pneumocystis carini
[3] = Binding affinity to Poly (dA-dT) DNA at 1:5 compound to DNA base pair ratio
Pneumocystis carinii [4] = test: Antimicrobial activity against Pneumocystis carinii assessed as ATP level detection by bioluminescence assay; format: functional, organism-based
NCI-H460 = test: Cytotoxicity against Homo sapiens (human) NCI-H460 cells at 100 uM after 48 hr by SRB assay relative to control; format: cell-based; settings: nci-h460, 48 h
Malme-3M = test: Growth inhibition of Homo sapiens (human) MALME-3M cells after 48 hr by SRB assay; format: cell-based
SR = test: Growth inhibition of Homo sapiens (human) SR cells after 48 hr by SRB assay; format: cell-based
A498 = test: Growth inhibition of Homo sapiens (human) A498 cells after 48 hr by SRB assay; format: cell-based; settings: a498, 48 h
SN12C = test: Growth inhibition of Homo sapiens (human) SN12C cells after 48 hr by SRB assay; format: cell-based
CAKI-1 = test: Growth inhibition of Homo sapiens (human) Caki1 cells after 48 hr by SRB assay; format: cell-based; settings: caki-1, 48 h
Pneumocystis carinii [5] = test: Ratio of pentamidine IC50 to compound IC50 for Pneumocystis carinii assessed as ATP level detection by bioluminescence assay; format: functional

`N=C(N)c1ccc(OCc2cccc(COc3ccc(C(=N)N)cc3)c2)cc1` gave an Activity (SF-268) of 0%, a ΔTm (DNA) of 14 °C and an Activity (MCF7) of 0%. The Activity [1] was “Non-toxic”, the “Selectivity Index” value [2] was 3 and the ΔTm [3] was 23.9 °C. For the same molecule, the IC50 (Pneumocystis carinii [4]) was 2600 nM and the Activity (NCI-H460) was 0%.

In the case of `N#Cc1ccc(N2CCCN(c3ccc(C#N)cc3)CC2)cc1`, the Activity (SF-268) is reported as 101%, the Activity (MCF7) is reported as 70% and the Activity (NCI-H460) is reported as 92%.

Molecule `N#Cc1ccc(N2CCN(c3ccc(C#N)cc3)CC2)cc1` has an Activity (SF-268) of 105%, a ΔTm (DNA) of 0 °C and an Activity (MCF7) of 102%. The ΔTm [3] was -0.2 °C, the IC50 (Pneumocystis carinii [4]) was > 125000 nM and the Activity (NCI-H460) was 106%.

In the case of `N=C(N)c1ccc(OCCCCCOc2ccc(C(=N)N)cc2)cc1` [PENTAMIDINE], the ΔTm (DNA) is reported as 11.6 °C, the “Selectivity Index” value [2] is reported as 20 and the ΔTm [3] is reported as 20.6 °C.

`CCCCNC(=N)c1ccc(N2CCCN(c3ccc(C(=N)NCCCC)cc3)CC2)cc1` gave an Activity (SF-268) of 101%, a ΔTm (DNA) of 11.8 °C and an Activity (MCF7) of 39%. For the same molecule, the “Selectivity Index” value [2] was 36, the pGI50 (Malme-3M) was 6.4 and the ΔTm [3] was 13.3 °C. For the same molecule, the pGI50 (SR) was 6.2, the IC50 (Pneumocystis carinii [4]) was 357 nM and the pGI50 (A498) was 6.8. It also gave an Activity (NCI-H460) of 17%.

With `c1cc(N2CCN(c3ccc(C4=NCCCN4)cc3)CC2)ccc1C1=NCCCN1` the Activity (SF-268) was 93%, the ΔTm (DNA) was 12.2 °C and the Activity (MCF7) was 77%. For the same molecule, the “Selectivity Index” value [2] was >33, the Activity (SN12C) was “Toxic” and the ΔTm [3] was 17.9 °C. The IC50 (Pneumocystis carinii [4]) was 3000 nM, the Activity (A498) was “Toxic” and the Activity (NCI-H460) was 18%.

`N=C(N)c1ccc(COc2ccccc2OCc2ccc(C(=N)N)cc2)cc1` gave an Activity (SF-268) of 27%, a ΔTm (DNA) of 0.1 °C and an Activity (MCF7) of 42%. The “Selectivity Index” value [2] was 24, the pGI50 (SN12C) was 5.1 and the ΔTm [3] was -0.1 °C. The IC50 (Pneumocystis carinii [4]) was 1700 nM, the pGI50 (CAKI-1) was 5.1 and the pGI50 (A498) was 5.1. The Activity (NCI-H460) was 5%.

Work on `c1cc(N2CCCN(c3ccc(C4=NCCCN4)cc3)CC2)ccc1C1=NCCCN1` yielded an Activity (SF-268) of 55%, a ΔTm (DNA) of 15.5 °C and an Activity (MCF7) of 42%. For the same molecule, the “Selectivity Index” value [2] was 18, the Activity (SN12C) was “Toxic” and the ΔTm [3] was 21.3 °C. The IC50 (Pneumocystis carinii [4]) was 4500 nM, the Activity (A498) was “Toxic” and the Activity (NCI-H460) was 28%.

Work on `N=C(N)c1ccc(NC(=O)CCCC(=O)Nc2ccc(C(=N)N)cc2)cc1` yielded an Activity (SF-268) of 121%, a ΔTm (DNA) of 5.6 °C and an Activity (MCF7) of 122%. For the same molecule, the “Selectivity Index” value [2] was >33333, the ΔTm [3] was 11.4 °C and the “Ratio IC50” value (Pneumocystis carinii [5]) was 167. The Activity (NCI-H460) was 105%.

Molecule `N=C(N)c1ccc(N2CCCN(c3ccc(C(=N)N)cc3)CC2)cc1` has an Activity (SF-268) of 94%, a ΔTm (DNA) of 15 °C and an Activity (MCF7) of 87%. The “Selectivity Index” value [2] was 32, the pGI50 (SN12C) was 5.1 and the ΔTm [3] was 23.1 °C. The IC50 (Pneumocystis carinii [4]) was 2000 nM, the pGI50 (CAKI-1) was 5.1 and the pGI50 (A498) was 5.1. For the same molecule, the Activity (NCI-H460) was 44%.

Molecule `N=C(N)c1ccc(OC(=O)c2ccc(C(=O)Oc3ccc(C(=N)N)cc3)cc2)cc1` [BIS(4-CARBAMIMIDOYLPHENYL)TEREPHTHALATE] has an Activity (SF-268) of 94%, a ΔTm (DNA) of 9.9 °C and an Activity (MCF7) of 79%. For the same molecule, the “Selectivity Index” value [2] was >8, the ΔTm [3] was 10.4 °C and the Activity (NCI-H460) was 96%.

Molecule `N=C(N)c1ccc(NC(=O)CCCCC(=O)Nc2ccc(C(=N)N)cc2)cc1` has an Activity (SF-268) of 52%, a ΔTm (DNA) of 8.7 °C and an Activity (MCF7) of 34%. The “Selectivity Index” value [2] was >50000, the ΔTm [3] was 14.4 °C and the “Ratio IC50” value (Pneumocystis carinii [5]) was 167. For the same molecule, the Activity (NCI-H460) was 75%.

`N=C(NC1CC1)c1ccc(N2CCCN(c3ccc(C(=N)NC4CC4)cc3)CC2)cc1` gave an Activity (SF-268) of 104%, a ΔTm (DNA) of 15.3 °C and an Activity (MCF7) of 87%. For the same molecule, the “Selectivity Index” value [2] was >71, the ΔTm [3] was 23.6 °C and the IC50 (Pneumocystis carinii [4]) was 1400 nM. For the same molecule, the Activity (NCI-H460) was 71%.

In the case of `N=C(NC1CC1)c1ccc(N2CCN(c3ccc(C(=N)NC4CC4)cc3)CC2)cc1`, the Activity (SF-268) is reported as 115%, the ΔTm (DNA) is reported as 14.5 °C and the Activity (MCF7) is reported as 108%. The “Selectivity Index” value [2] was >19, the ΔTm [3] was 23.9 °C and the IC50 (Pneumocystis carinii [4]) was 5400 nM. The Activity (NCI-H460) was 74%.
